According to ChEMBL document CHEMBL5696439 (Cancer Res, 2010):
Activity calls are given as the source filed them. No cut-off for these calls is given here.

Experiments:
[1] = target: Ribosomal protein S6 kinase alpha-2 (Homo sapiens) (UniProt Q15349); test: Inhibition of recombinant human full length GST-tagged RPS6KA2 expressed in insect cells at 2 uM using Ser/Thr 06 as substrate measured after 1 hr by Z'-LYTE assay relative to control; conditions: Insect cell
[2] = target: Protein kinase C gamma type (Homo sapiens) (UniProt P05129); test: Inhibition of recombinant human full length GST-tagged PRKCG expressed in insect cells at 2 uM using Ser/Thr 07 as substrate measured after 1 hr by Z'-LYTE assay relative to control; conditions: Insect cell
[3] = target: AMP-activated protein kinase (AMPK) alpha-1/beta-1/gamma-1 (Homo sapiens) (UniProt P54619+Q9Y478+Q13131); test: Inhibition of recombinant human full-length GST/His-tagged AMPKalpha1/beta1/gamma1 expressed in insect cells at 2 uM using Ser/Thr 23 as substrate measured after 1 hr by Z'-LYTE assay relative to control; conditions: Insect cell
[4] = test system: A549; test: Antiproliferative activity against human A549 cells assessed as cell growth inhibition at 10 micromol/L incubated for 3 days by MTS assay relative to control; assay type: functional; conditions: A549, 72 h, dose 10 µmol/L, time 3 day
[5] = target: Cytoplasmic tyrosine-protein kinase BMX (Homo sapiens) (UniProt P51813); test: Inhibition of recombinant human full-length His-tagged BMX expressed in insect cells at 2 uM using Tyr 01 as substrate measured after 1 hr by Z'-LYTE assay relative to control; conditions: Insect cell
[6] = test system: Rat1; test: Inhibition of mTORC2 in rat Rat1 cells assessed as reduction in AKT phosphorylation at T308 level at 0.01 to 2 uM incubated for 1 hrs in the presence of IGF-1 stimulation by immunoblot assay; assay type: cell-based; conditions: dose 0.01-2 µM
[7] = target: cGMP-dependent protein kinase 2 (Homo sapiens) (UniProt Q13237); test: Inhibition of recombinant human full length GST-tagged PRKG2 expressed in insect cells at 2 uM using Ser/Thr 01 as substrate measured after 1 hr by Z'-LYTE assay relative to control; conditions: Insect cell
[8] = target: mTORC2 (Homo sapiens) (UniProt P42345+Q6R327+Q9BVC4+Q9BPZ7); conditions: U-87 MG, dose 0.025-2 µmol/L, time 6.0 hrs
[9] = test system: Epidermal growth factor receptor (Homo sapiens), P00533 [L858R]; test: Inhibition of recombinant human GST-tagged EGFR L858R mutant (668-1210 residues) expressed in insect cells at 2 uM using Tyr 04 as substrate measured after 1 hr by Z'-LYTE assay relative to control; conditions: Insect cell
[10] = target: Serine/threonine-protein kinase D2 (Homo sapiens) (UniProt Q9BZL6); test: Inhibition of recombinant human full length GST-tagged PRKD2 expressed in insect cells at 2 uM using Ser/Thr 17 as substrate measured after 1 hr by Z'-LYTE assay relative to control; conditions: Insect cell
[11] = target: Ephrin type-A receptor 1 (Homo sapiens) (UniProt P21709); test: Inhibition of recombinant human GST-tagged EPHA1 (568-976 residues) expressed in insect cells at 2 uM using Tyr 02 as substrate measured after 1 hr by Z'-LYTE assay relative to control; conditions: Insect cell
[12] = target: Serine/threonine-protein kinase MARK2 (Homo sapiens) (UniProt Q7KZI7); test: Inhibition of recombinant human full length GST-tagged MARK2 expressed in insect cells at 2 uM using Ser/Thr 21 as substrate measured after 1 hr by Z'-LYTE assay relative to control; conditions: Insect cell
[13] = test system: MDA-MB-361; test: Inhibition of protein synthesis in human MDA-MB-361 cells at 0.3 micromol/L incubated for 3 hrs by [3H] methionine incorporation based scintillation counter analysis relative to control; assay type: functional; conditions: MDA-MB-361, 3 h, dose 0.3 µmol/L
[14] = target: Tyrosine-protein kinase Srms (Homo sapiens) (UniProt Q9H3Y6); test: Inhibition of recombinant human full length GST-tagged SRMS expressed in insect cells at 2 uM using Tyr 01 as substrate measured after 1 hr by Z'-LYTE assay relative to control; conditions: Insect cell
[15] = target: Casein kinase I isoform epsilon (Homo sapiens) (UniProt P49674); test: Inhibition of recombinant human full-length His-tagged CSNK1E expressed in insect cells at 2 uM using Ser/Thr 11 as substrate measured after 1 hr by Z'-LYTE assay relative to control; conditions: Insect cell
[16] = test system: HCT-116; test: Induction of apoptosis in human HCT-116 cells assessed as increase in G1 phase at 1 micromol/L incubated for 24 hrs by FACS analysis; assay type: functional, cell-based; conditions: dose 1.0 µmol/L
[17] = test system: U-87 MG; test: Antitumor activity against human U-87MG cells assessed as lactate production incubated for 24 hrs; assay type: functional, cell-based; conditions: U-87MG ATCC, dose 0.01-10 µmol/L
[18] = target: Protein kinase C alpha type (Homo sapiens) (UniProt P17252); test: Inhibition of recombinant human full length GST-tagged PRKCA expressed in baculovirus expression system at 2 uM using Ser/Thr 07 as substrate measured after 1 hr by Z'-LYTE assay relative to control
[19] = test system: MDA-MB-361; test: Antitumor activity against human MDA-MB-361 cells xenografted in female nude mouse model assessed as substantial regression in tumor at 50 mg/kg, po qd administered as 5 days on/2 days off regimen for 4 cycles; assay type: functional, organism-based; conditions: time 28.0 day
[20] = test system: Platelet-derived growth factor receptor alpha (Homo sapiens), P16234 [T674I]; test: Inhibition of recombinant human GST-tagged PDGFRA T674I mutant (550-1089 residues) expressed in baculovirus expression system at 2 uM using Tyr 04 as substrate measured after 1 hr by Z'-LYTE assay relative to control
[21] = test system: HCT-116; test: Induction of apoptosis in human HCT-116 cells assessed as increase in PARP cleavage at 0.3 to 3 micromol/L incubated for 48 hrs by Western blot analysis; assay type: functional, cell-based; conditions: dose 0.3-3 µmol/L
[22] = target: Dual specificity tyrosine-phosphorylation-regulated kinase 1B (Homo sapiens) (UniProt Q9Y463); test: Inhibition of recombinant human full-length GST-tagged DYRK1B expressed in insect cells at 2 uM using Ser/Thr 18 as substrate measured after 1 hr by Z'-LYTE assay relative to control; conditions: Insect cell
[23] = target: Serine/threonine-protein kinase Nek2 (Homo sapiens) (UniProt P51955); test: Inhibition of recombinant human full length His-tagged NEK2 expressed in baculovirus expression system at 2 uM using Ser/Thr 07 as substrate measured after 1 hr by Z'-LYTE assay relative to control
[24] = test system: HCT-116; test: Antitumor activity against human HCT-116 cells xenografted in female nude mouse model assessed as reduction in P-AKT at T308 level at 50 mg/kg, iv administered once a week and measured at least 8 hrs by immunoblot analysis; assay type: functional, organism-based
[25] = test system: PC3MM2; test: Antiproliferative activity against human PC3MM2 cells assessed as cell growth inhibition incubated for 24 hrs by MTS assay; assay type: functional, cell-based; conditions: PC3MM2, 24 h
[26] = target: Tyrosine-protein kinase Fgr (Homo sapiens) (UniProt P09769); test: Inhibition of recombinant human full-length His-tagged FGR expressed in insect cells at 2 uM using Tyr 02 as substrate measured after 1 hr by Z'-LYTE assay relative to control; conditions: Insect cell
Tyrosine-protein kinase Fgr (Homo sapiens), sequence (P09769 2-529 limits assumed): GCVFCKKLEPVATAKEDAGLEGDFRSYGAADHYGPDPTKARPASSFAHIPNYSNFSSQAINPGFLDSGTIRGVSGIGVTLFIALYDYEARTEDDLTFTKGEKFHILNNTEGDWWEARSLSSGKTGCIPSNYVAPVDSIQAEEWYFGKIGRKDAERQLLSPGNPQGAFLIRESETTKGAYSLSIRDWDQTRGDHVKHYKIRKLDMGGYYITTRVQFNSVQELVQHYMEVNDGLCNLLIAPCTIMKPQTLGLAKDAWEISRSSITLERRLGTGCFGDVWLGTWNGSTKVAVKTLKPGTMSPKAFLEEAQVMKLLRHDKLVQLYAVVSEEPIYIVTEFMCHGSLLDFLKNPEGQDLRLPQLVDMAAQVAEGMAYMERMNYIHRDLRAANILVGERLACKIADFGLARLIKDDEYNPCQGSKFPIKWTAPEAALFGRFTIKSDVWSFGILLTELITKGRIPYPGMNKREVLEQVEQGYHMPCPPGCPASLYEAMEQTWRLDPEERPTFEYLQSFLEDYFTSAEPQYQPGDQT

Tyrosine-protein kinase Srms (Homo sapiens), sequence (Q9H3Y6 whole entry, canonical isoform): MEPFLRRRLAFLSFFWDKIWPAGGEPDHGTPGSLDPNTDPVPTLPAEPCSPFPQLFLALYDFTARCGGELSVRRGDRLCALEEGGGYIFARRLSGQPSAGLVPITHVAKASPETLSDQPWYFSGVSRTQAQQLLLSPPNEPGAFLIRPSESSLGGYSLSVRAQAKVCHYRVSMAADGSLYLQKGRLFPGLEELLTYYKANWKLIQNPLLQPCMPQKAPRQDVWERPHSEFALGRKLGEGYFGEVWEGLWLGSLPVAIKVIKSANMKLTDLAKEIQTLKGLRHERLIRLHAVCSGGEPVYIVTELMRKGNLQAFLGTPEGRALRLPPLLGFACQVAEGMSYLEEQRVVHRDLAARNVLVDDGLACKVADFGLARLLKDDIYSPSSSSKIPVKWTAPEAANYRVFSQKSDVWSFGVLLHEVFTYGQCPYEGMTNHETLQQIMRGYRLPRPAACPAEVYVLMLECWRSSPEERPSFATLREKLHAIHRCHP
Epidermal growth factor receptor (Homo sapiens), P00533 [L858R], sequence (P00533 whole entry L858R, the tested form may be a part): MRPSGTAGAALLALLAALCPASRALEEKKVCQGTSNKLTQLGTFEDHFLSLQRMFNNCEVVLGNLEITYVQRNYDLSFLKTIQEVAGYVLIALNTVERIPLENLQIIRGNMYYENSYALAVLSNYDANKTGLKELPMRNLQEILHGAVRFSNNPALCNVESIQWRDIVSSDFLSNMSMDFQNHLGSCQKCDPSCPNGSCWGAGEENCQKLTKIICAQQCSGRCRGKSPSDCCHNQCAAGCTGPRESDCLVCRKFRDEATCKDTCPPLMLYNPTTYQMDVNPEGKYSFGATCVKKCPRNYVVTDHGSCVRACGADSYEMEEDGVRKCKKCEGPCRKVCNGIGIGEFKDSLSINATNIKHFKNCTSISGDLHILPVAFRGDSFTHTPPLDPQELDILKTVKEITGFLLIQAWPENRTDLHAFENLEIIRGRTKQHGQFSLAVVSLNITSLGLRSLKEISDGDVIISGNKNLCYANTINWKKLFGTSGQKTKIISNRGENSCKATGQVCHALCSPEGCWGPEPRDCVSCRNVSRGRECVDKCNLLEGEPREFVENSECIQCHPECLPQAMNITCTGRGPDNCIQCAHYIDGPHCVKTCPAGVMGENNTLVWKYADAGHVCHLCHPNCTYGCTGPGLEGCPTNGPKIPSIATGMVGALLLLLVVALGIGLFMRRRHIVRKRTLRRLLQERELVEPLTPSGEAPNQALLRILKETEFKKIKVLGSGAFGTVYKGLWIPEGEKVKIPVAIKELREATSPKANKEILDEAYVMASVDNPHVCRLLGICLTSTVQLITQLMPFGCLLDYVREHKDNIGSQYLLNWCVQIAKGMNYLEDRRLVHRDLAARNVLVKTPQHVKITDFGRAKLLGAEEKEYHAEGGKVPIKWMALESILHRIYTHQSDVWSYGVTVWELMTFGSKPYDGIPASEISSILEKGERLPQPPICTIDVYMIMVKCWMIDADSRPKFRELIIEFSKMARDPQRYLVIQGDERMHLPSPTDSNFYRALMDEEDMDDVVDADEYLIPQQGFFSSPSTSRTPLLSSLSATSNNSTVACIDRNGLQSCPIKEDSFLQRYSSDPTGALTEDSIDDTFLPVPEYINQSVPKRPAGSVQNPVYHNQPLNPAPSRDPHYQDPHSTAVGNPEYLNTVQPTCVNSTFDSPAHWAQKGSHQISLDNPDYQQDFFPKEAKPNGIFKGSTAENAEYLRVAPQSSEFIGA
Dual specificity tyrosine-phosphorylation-regulated kinase 1B (Homo sapiens), sequence (Q9Y463 whole entry, looked up): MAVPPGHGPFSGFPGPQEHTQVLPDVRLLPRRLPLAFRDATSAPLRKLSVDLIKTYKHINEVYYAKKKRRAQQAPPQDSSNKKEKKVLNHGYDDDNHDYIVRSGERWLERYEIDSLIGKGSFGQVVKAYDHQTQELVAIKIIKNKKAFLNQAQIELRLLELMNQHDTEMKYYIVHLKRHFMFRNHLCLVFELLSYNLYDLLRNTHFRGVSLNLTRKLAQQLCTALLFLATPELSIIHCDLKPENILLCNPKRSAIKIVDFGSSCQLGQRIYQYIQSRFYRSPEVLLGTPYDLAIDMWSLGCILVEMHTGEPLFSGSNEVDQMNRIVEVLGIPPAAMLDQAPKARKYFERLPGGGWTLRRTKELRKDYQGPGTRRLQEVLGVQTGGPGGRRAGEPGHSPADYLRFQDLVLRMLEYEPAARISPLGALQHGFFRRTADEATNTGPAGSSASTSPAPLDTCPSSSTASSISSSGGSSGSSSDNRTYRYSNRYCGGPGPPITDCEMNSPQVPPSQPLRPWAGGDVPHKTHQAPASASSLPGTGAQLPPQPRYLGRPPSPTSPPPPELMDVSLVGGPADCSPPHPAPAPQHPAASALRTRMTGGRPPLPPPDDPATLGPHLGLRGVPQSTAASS
Ribosomal protein S6 kinase alpha-2 (Homo sapiens), sequence (Q15349 whole entry): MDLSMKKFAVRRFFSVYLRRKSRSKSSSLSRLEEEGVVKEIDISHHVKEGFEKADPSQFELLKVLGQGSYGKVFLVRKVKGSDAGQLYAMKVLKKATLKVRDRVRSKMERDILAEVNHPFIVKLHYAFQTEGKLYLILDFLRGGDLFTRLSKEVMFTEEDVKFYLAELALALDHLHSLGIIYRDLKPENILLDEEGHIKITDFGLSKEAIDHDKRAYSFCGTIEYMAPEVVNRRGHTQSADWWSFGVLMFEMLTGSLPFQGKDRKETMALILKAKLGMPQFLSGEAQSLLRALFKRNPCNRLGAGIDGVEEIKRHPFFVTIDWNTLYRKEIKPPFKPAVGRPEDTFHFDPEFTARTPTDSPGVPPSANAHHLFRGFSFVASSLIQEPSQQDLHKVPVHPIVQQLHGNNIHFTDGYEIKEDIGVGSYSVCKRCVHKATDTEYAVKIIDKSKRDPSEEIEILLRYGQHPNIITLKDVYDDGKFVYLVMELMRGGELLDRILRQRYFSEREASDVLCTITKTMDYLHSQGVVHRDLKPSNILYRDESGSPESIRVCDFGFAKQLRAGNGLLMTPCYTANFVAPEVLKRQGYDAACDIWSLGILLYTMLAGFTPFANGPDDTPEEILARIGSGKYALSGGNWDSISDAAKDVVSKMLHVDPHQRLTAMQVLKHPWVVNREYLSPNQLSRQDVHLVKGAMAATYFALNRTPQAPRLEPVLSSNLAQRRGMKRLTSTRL
cGMP-dependent protein kinase 2 (Homo sapiens), sequence (Q13237 whole entry): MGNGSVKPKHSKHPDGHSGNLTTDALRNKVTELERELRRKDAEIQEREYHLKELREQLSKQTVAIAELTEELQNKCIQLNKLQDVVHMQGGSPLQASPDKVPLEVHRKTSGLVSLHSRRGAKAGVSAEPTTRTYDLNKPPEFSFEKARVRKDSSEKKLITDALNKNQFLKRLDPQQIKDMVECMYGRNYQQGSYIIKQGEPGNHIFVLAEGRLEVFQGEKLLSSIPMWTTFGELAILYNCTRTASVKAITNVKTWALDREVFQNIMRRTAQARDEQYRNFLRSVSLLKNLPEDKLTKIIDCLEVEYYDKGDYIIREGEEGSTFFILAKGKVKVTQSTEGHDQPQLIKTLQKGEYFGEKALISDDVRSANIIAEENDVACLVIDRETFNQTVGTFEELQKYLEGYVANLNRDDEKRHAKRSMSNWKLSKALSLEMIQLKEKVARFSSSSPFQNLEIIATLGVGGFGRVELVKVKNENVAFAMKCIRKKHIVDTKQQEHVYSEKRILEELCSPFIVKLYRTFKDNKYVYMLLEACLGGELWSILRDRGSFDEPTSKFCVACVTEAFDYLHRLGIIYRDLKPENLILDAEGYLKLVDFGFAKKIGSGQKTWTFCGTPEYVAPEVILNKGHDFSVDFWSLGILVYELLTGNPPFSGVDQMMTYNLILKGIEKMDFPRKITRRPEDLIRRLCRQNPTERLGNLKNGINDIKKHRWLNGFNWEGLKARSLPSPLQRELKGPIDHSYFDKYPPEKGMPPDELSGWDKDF
Serine/threonine-protein kinase Nek2 (Homo sapiens), sequence (P51955 whole entry): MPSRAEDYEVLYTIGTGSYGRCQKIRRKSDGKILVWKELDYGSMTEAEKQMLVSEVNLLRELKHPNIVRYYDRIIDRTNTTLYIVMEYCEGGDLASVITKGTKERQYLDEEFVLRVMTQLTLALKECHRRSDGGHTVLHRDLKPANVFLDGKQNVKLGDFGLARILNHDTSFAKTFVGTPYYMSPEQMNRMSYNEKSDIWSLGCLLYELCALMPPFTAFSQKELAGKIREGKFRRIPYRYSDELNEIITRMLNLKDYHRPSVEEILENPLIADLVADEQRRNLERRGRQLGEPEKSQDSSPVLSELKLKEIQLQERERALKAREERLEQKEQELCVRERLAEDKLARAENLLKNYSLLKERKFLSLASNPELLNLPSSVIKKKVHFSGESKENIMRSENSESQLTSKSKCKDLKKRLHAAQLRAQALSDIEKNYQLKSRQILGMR

**Q.** What does the source list for `CNC(=O)Nc1ccc(-c2nc(N3CC4CCC(C3)O4)c3cnn(C4CCC5(CC4)OCCO5)c3n2)cc1`?
**A.** inhibition [1]: -1%; inhibition [2]: 11%; inhibition [3]: 5%; inhibition at 10 µM [4]: 100%; inhibition [5]: 10%; inhibition [6]: inactive; inhibition [7]: 9%; inhibition [8]: Active; inhibition [9]: 3%; inhibition [10]: 1%; inhibition [11]: 3%; inhibition [12]: 12%; inhibition at 0.3 µM [13]: ~50%; inhibition [14]: 7%; inhibition [15]: 4%; Activity [16]: Active; Activity [17]: Dose-Dependent Effect; inhibition [18]: 10%; Activity [19]: Active; inhibition [20]: 12%; Activity [21]: inactive; inhibition [22]: 2%; inhibition [23]: 10%; Activity [24]: inactive; IC50 [25]: 2 nM; inhibition [26]: 1%
